Measurements reported in patent US20190160037A1, “METHOD OF TREATING, REDUCING, PREVENTING DETERIORATION OR IMPROVING VISUAL FUNCTION AFTER OPTIC NEUROPATHY” (TZU CHI UNIVERSITY, priority 2017, published 2019).

Key:
RGCs = assay: Retrograde Fluorogold labeling of RGCs, RGC density after ON crush; format: in vivo, Wistar rats
Text: (§1) An ON crush injury was induced as described in the previous report. (Chien J Y, Sheu J H, Wen Z H, Tsai R K, Huang S P. Neuroprotective effect of 4-(Phenylsulfanyl)butan-2-one on optic nerve crush model in rats. Experimental eye research. 2016; 143:148-57. Epub 2015/10/17). Briefly, rats were general anesthetized and eye were further anesthetized with topical 0.5% Alcaine eye drops. The conjunctiva was cut with Vannas scissors to expose the optic nerve. Care was taken to avoid damaging the small vessels around the ON. Injury was introduced by crushing the ON 2 mm posterior to the globe with a vascular clip (60 g micro-vascular clip, World Precision Instruments, FL, USA) for 30 seconds. After the surgery, Tobradex eye ointment (Alcon, Puurs, Belgium) was administered. The rats were kept under supervision and on electric heating pads at 37° C. for recovery. A sham operation was performed by exposing the ON in the same way but not crushed. Oroxyiln A (15 mg/Kg in 0.2 ml phosphate-buffered saline) or phosphate-buffered saline (PBS control) was immediately administered after ON crush once by subcutaneous injection.
Retrograde labeling of RGCs with Fluorogold (FG) and densities of RGCs. The detailed procedures have been described in the previous reports. (Chien J Y, Sheu J H, Wen Z H, Tsai R K, Huang S P. Neuroprotective effect of 4-(Phenylsulfanyl)butan-2-one on optic nerve crush model in rats. Experimental eye research. 2016; 143:148-57. Epub 2015/10/17; Tsai R K, Chang C H, Wang H Z. Neuroprotective effects of recombinant human granulocyte colony-stimulating factor (G-CSF) in neurodegeneration after optic nerve crush in rats. Experimental eye research. 2008; 87(3):242-50. Epub 2008/07/08). Briefly, retrograde labeling of RGCs with FG was performed one week before sacrificing to avoid overcounting RGCs by mixing labeled RGCs with dye-engulfed macrophages and microglia. (Huang T L, Huang S P, Chang C H, Lin K H, Sheu M M, Tsai R K. Factors influencing the retrograde labeling of retinal ganglion cells with fluorogold in an animal optic nerve crush model. Ophthalmic research. 2014; 51(4):173-8. Epub 2014/03/26). The rats were anesthetized using a ketamine (100 mg/kg) and xylazine (10 mg/kg) mixture, and then placed in a stereotactic apparatus (Stoelting, Wood Dale, Ill., USA). […] One week after labeling, the eyeballs were harvested after euthanasia of the animals. The eyeballs were placed in 10% formalin and the whole retina was then carefully dissected, flattened. The retina was examined with a 400 epi-fluorescence microscope (Axioskop; Carl Zeiss Meditec. Inc., Jena, Germany) equipped with a filter set (excitation filter: 350-400 nm; barrier filter: 515 nm), as well as a digital camera (Axiocam MRm) and software (Axiovision 4.0). The retinas were examined for RGCs at a distance of 1 or 3 mm ([…] from the center to provide the central and mid-peripheral RGC densities respectively. Eight randomly chosen areas (38250 μm2; […]) in the central (about 40% of the central area) and mid-peripheral (about 30% of the mid-periphery) regions of each retina (n=6 per group) were counted. The averages of these areas were taken as the mean density of RGCs per retina. RGC survival percentage was defined as the number of RGCs in each treatment group divided by the number of RGCs in the sham-operated retina, multiplied by 100.

iNOS = iNOS immunoblot in the retina after ON crush; format: in vivo, Wistar rats; details: two weeks after ON crush, ratio to GAPDH, vs PBS-treated
Text: as §1, with “Oroxyiln A (15 mg/Kg in 0.2 ml phosphate-buffered saline) or phosphate-buffered saline (PBS control) was immediately administered after ON crush once by subcutaneous injection.” left out
(§2) Total retinal protein extracts from rat retina were prepared using modified radioimmunoprecipitation (RIPA) buffer. The protein concentrations were determined using the BCA (bicinchoninic acid) protein assay kit (Pierce). […] The proteins on the membranes were detected using an enhanced chemiluminescence (ECL) system (Amersham Biosciences). […]

[1] = tested on: hippocampal dentate gyrus region; details: in vivo studies; cited from earlier work
COX-2 = COX-2 immunoblot in the retina after ON crush; format: in vivo, Wistar rats; details: two weeks after ON crush, ratio to GAPDH, vs PBS-treated
Text: as §1, with “Oroxyiln A (15 mg/Kg in 0.2 ml phosphate-buffered saline) or phosphate-buffered saline (PBS control) was immediately administered after ON crush once by subcutaneous injection.” left out
as §2

[2] = tested on: rat model subject to ON crush; assay: Flash visual-evoked potentials (FVEPs) after ON crush; format: in vivo, Wistar rats; details: 2 weeks after ON crush; 15 mg/Kg once by subcutaneous injection; n=6
Text: as §1
For the functional evaluation of the ON, FVEPs were recorded 2 weeks after ON crush in 18 experimental rats. The groups in assessing FVEP were masked. […]

GFAP = GFAP IHC and immunoblot in the retina after ON crush; format: in vivo, Wistar rats; details: 2 weeks after ON crush, vs ON-crushed, PBS-treated group, p<0.05
Text: An ON crush injury was induced as described in the previous report. (Chien J Y, Sheu J H, Wen Z H, Tsai R K, Huang S P. Neuroprotective effect of 4-(Phenylsulfanyl)butan-2-one on optic nerve crush model in rats. Experimental eye research. 2016; 143:148-57. Epub 2015/10/17). Briefly, rats were general anesthetized and eye were further anesthetized with topical 0.5% Alcaine eye drops. The conjunctiva was cut with Vannas scissors to expose the optic nerve. Care was taken to avoid damaging the small vessels around the ON. Injury was introduced by crushing the ON 2 mm posterior to the globe with a vascular clip (60 g micro-vascular clip, World Precision Instruments, FL, USA) for 30 seconds. […]
(§3) IHC of ED1 (CD68, a marker of macrophage/microglia) in the ONs and IHC of GFAP in the retina using monoclonal antibody (ED1, 1:50; AbD Serotec, Oxford, UK) or polyclonal antibody (GFAP, 1:200; Cambridge, Mass., USA) was performed. […] For comparison, ED1 positive cells were counted in six HPF at the lesion site of ON (n=6 in each group).
as §2

Brn-3a+ cells (RGCs) = assay: Brn3a-labeled flat-mounted retinas after ON crush; format: in vivo, Wistar rats; details: for densities of Brn-3a+ cells in mid-peripheral retina / densities of Brn-3a+ cells in the central retina: after ON crush, 15 mg/Kg once by subcutaneous injection, 15 mg/kg
Text: as §1
Animals were euthanized and eyes were enucleated and fixed in 10% formalin for 1 hour. Retina flat mounts were subjected to immunofluorescent staining for Brn-3a as previously described. (Tual-Chalot S, Allinson K R, Fruttiger M, Arthur H M. Whole Mount Immunofluorescent Staining of the Neonatal Mouse Retina to Investigate Angiogenesis In vivo. 2013; (77):e50546). In brief, flat mounts were washed with PBS and blocked with blocking buffer (PBS with 0.3% Triton-X and 5% Fetal Bovine Serum) for 1 hour. Flat mounts were then incubated with primary monoclonal antibody Brn-3a (1:200; Santa Cruz, Calif., USA) for 24 hours, washed with PBS and treated with secondary antibody Alexa flour 488 (1:400; Life Technologies, OR, USA) and incubated overnight. 8 to 10 microphotographs were captured for every retina flat mount covering central and mid peripheral region.

[3] = tested on: apoptotic cells in the RGC layer; assay: TUNEL assay in the RGC layer of the retina after ON crush; format: in vivo, Wistar rats; details: 15 mg/Kg once by subcutaneous injection, n=6
Text: as §1, with “Oroxyiln A (15 mg/Kg in 0.2 ml phosphate-buffered saline) or phosphate-buffered saline (PBS control) was immediately administered after ON crush once by subcutaneous injection.” left out
To ensure the use of equivalent fields for comparison, all retinal frozen sections were prepared with retinas at 1-2 mm distance from the ONH. […] The TUNEL positive cells in the RGC layer of each sample were counted in ten high powered fields (HPF, ×400 magnification), and three sections per eye were averaged. […]

microglia = details: cited from earlier work
[4] = tested on: ED1 (CD68, a marker of macrophage/microglia); assay: IHC of ED1 in the ONs after ON crush; format: in vivo, Wistar rats; details: 2 weeks after ON crush; 15 mg/Kg once by subcutaneous injection; n=6
Text: as §1, with “Oroxyiln A (15 mg/Kg in 0.2 ml phosphate-buffered saline) or phosphate-buffered saline (PBS control) was immediately administered after ON crush once by subcutaneous injection.” left out
as §3

RAW264.7 macrophages = details: through inhibiting the activation of NFκB-p65; cited from earlier work
[5] = compared to the PBS-treated group
[6] = relative to sham-operated retina, two weeks after ON crush
[7] = two weeks after ON crush, 15 mg/Kg once by subcutaneous injection, n=6

For `COc1c(O)cc2oc(-c3ccccc3)cc(=O)c2c1O` [oroxylin A, 5,7-dihydroxy-6-methoxyflavone], the “RGC survival rate increase vs PBS-treated group, central retina (FG labeling)” value (RGCs; [5]) was “approximately 32.7%”, the “RGC survival rate increase vs PBS-treated group, mid-peripheral retina (FG labeling)” value (RGCs; [5]) was ~33.6% and the “RGC survival, central retina (FG labeling)” value (RGCs; [6]) was 52.5 % survival. The “RGC survival, mid-peripheral retina (FG labeling)” value (RGCs; [6]) was 61.9 % survival, the “densities of RGCs in mid-peripheral retina (FG labeling)” value (RGCs; [7]) was 960±465 /mm^2 and the “densities of RGCs in the central retina (FG labeling)” value (RGCs; [7]) was 1352±476 /mm^2. For the same molecule, the “expression level of iNOS in the retina” value (iNOS) was “reducing the expression level”, the “expression level of iNOS in the retina” value (iNOS; listed as Oroxylin A) was “suppressed the increase” and the “adult neurogenesis in the hippocampal dentate gyrus region” value [1] was “stimulated”. The “amyloid (Aβ)-induced memory impairment” value [1] was “ameliorated”, the “cerebral hypoperfusion-induced neuronal damage” value [1] was “prevented” and the “expression level of COX-2 in the retina” value (COX-2) was “reducing the expression level”. For the same molecule, the “expression level of COX-2 in the retina” value (COX-2; listed as Oroxylin A) was “suppressed the increase”, the “latency of the P1 wave in FVEP” value [2] was 100 ± 12 ms and the “GFAP level in the retina (retinal gliosis)” value (GFAP) was “significantly reduced”. For the same molecule, the “GFAP level in the retina (retinal gliosis)” value (GFAP; listed as Oroxylin A) was “attenuated retinal gliosis”, the “densities of Brn-3a+ cells in mid-peripheral retina” value (Brn-3a+ cells (RGCs)) was 801±199 /mm^2 and the “densities of Brn-3a+ cells in the central retina” value (Brn-3a+ cells (RGCs)) was 847±367 /mm^2. The “densities of Brn-3a+ cells in mid-peripheral retina” value (Brn-3a+ cells (RGCs); listed as oroxylin-A) was 800±199 /mm^2, the “densities of Brn-3a+ cells in the central retina” value (Brn-3a+ cells (RGCs); listed as oroxylin-A) was 894±367 /mm^2 and the “RGC survival rate increase vs PBS-treated group, central retina (Brn-3a)” value (Brn-3a+ cells (RGCs); [5]) was “approximately 30.4%”. For the same molecule, the “RGC survival rate increase vs PBS-treated group, mid-peripheral retina (Brn-3a)” value (Brn-3a+ cells (RGCs); [5]) was ~29.7%, the “RGC survival, central retina (Brn-3a)” value (Brn-3a+ cells (RGCs); relative to sham-operated eyes) was 64.9 % survival and the “RGC survival, mid-peripheral retina (Brn-3a)” value (Brn-3a+ cells (RGCs); relative to sham-operated eyes) was 73 % survival. For the same molecule, the “TUNEL positive cells in the RGC layer” value [3] was 4.0±2.4 positive cells/HPG, the “LPS-induced NO production” value (microglia) was “strong inhibitory activities” and the “ED1 positive cells at the ON lesion site” value [4] was 33.5±16.3 cells/HPF. For the same molecule, the “LPS-induced iNOS and cyclooxygenase-2 expression” value (RAW264.7 macrophages) was “suppresses”.
